Experimental findings from US20050250945A1, “Triazine compounds as inhibitors of bacterial type III protein secretion systems” (priority 2004, published 2005) are described below.

What is called IC50 is the point on the concentration scale where inhibition reaches its midpoint.

What all share (assay type): cell-based
Assay [1] deals with SPI1 type III protein secretion system (SipB secretion). Kind of assay: Secondary assay: Type III-dependent protein secretion of the SipB polypeptide (immunoblot). Particulars: Salmonella enterica, read-out: SipB IC50(uM). As for the experimental part: Secondary assay: Type III-dependent protein secretion of the SipB polypeptide by S. enterica. The SipB protein of S. enterica is another effector of the SPI1 type III protein secretion system from S. enterica. In this cell-based procedure, the Type III-dependent secretion of SipB from the bacterial cytoplasm to the extracellular medium was measured through its reactivity with a cognate mouse monoclonal.
Salmonella enterica cells growing either in the presence or in the absence of inhibitors are induced for the production of SipB. Following an established period of growth the cells are sedimented and the amount of SipB present in the supernatant is quantified with a scanning imager following application of immunoblot techniques. Detection may employ an anti-SipB mouse monoclonal antibody (e.g., obtained from Jorge Galan, SUNY at Stony Brook, N.Y.) followed by treatment with commercially available sheep anti-mouse polyclonal antibody conjugated with horseradish peroxidase. Thereafter the membrane is treated with a peroxidase chemiluminescent substrate and exposed to film for an appropriate exposure time. Inhibition may be measured relative to untreated controls.
(In general: Immunoblotting shows a protein as a band on a membrane.)

In assay [2] the test system is SPI1 type III protein secretion system (SopE‘-’Bla secretion). Nature of the assay: Primary assay: Type III protein secretion of the chimeric SopE‘-’Bla polypeptide (nitrocefin hydrolysis). Particulars: Salmonella enterica, read-out: SopE IC50(uM). From the text:
Primary assay: Type III protein secretion of the chimeric SopE‘-’Bla polypeptide by Salmonella enterica. This procedure is a cell-based assay that measures the type III-dependent secretion by Salmonella enterica of a plasmid-encoded chimeric polypeptide whose synthesis can be regulated, and which is endowed with an enzymatic activity that can be monitored colorimetrically by hydrolysis of a substrate that is unable to penetrate into the bacterial cytoplasm within the time constraints of the reaction. Thus, the colorimetric reaction is not influenced by SopE‘-’Bla polypeptide in the bacterial cytoplasm. Instead, it effectively measures the amount of polypeptide that has been secreted from the S. enterica cytoplasm to the extracellular medium via type III system protein secretion.
The SopE‘-’Bla recombinant polypeptide consists of two functionally distinct domains spliced together. The N-terminus domain is encoded by a polynucleotide region specifying the signal for type III secretion of the SopE polypeptide of S. enterica, an effector of the SPI1 type III protein secretion system. The C-terminus domain of SopE‘-’Bla consists of a 263 amino acid peptide sequence that corresponds to the TEM-1 β-lactamase expressed by plasmid pBR322 but without its N-terminal signal sequence. The TEM-1 β-lactamase part of the SopE‘-’Bla chimeric polypeptide is used as a reporter enzyme. It is capable of hydrolyzing nitrocefin resulting in a product whose accumulation can be monitored by colorimetric detection. The secretion of the SopE‘—’Bla chimeric polypeptide from the cytoplasm to the extracellular medium is dependent on type III protein secretion.
For this procedure, cells grown under conditions known to favor a functional SPI1 secretion system are induced for expression of the SopE‘-’Bla protein and grown either in the presence or in the absence of putative inhibitors for determined time. Nitrocefin is then added to the various cultures and its hydrolysis are used for quantitation. An inhibitor of Type III protein secretion is generally a compound that reduces the signal of the enzymatic reaction by decreasing the amount of SopE‘-’Bla secreted into the extracellular medium.

Assay [3] relates to type III protein secretion system of P. aeruginosa PA103 (ExoU secretion). Kind of assay: Tertiary assay: Type III-dependent secretion of ExoU by P. aeruginosa PA103 (SDS-PAGE band quantitation). Particulars: Pseudomonas aeruginosa; P. aeruginosa PA103, ExoU secreted into extracellular medium. From the text:
Tertiary assay: Inhibition of Type III protein secretion of effectors from a Pseudomonas aeruginosa system. Type III protein secretion is used by P. aeruginosa to secrete several essential virulence determinants. One effector of the type III protein secretion system of P. aeruginosa PA103 is the virulence determinants ExoU.
The amount of Type III-dependent secretion of ExoU by P. aeruginosa PA103 can be determined in a cell-based assay by quantification of the 73.9 kDa ExoU protein secreted into the extracellular medium. Such quantitation can be achieved by growing strain PA103 in a deferrated medium in the presence of nitrilotriacetic acid (an inducer of Type III protein secretion in P. aeruginosa) and either in the presence or absence of putative inhibitors. After a prolonged growth period, the cells are sedimented and the supernatants concentrated by ammonium sulfate precipitation. The proteins in the resuspended pellets are separated by electrophoresis on SDS-polyacrylamide gels. After staining gels with Colloidal Blue™, the 73.9 kDa ExoU band is quantitated by scanning through an imager. The effects of inhibitors on the intensity of the ExoU band may be measured relative to that of untreated controls.

SMILES strings stand for the structures.

Consider `O=C(O)C(Cc1ccc(-c2ccc(-c3ccccc3)cc2)cc1)Nc1nc(-c2ccc(-c3ccccc3)cc2)nc(N2CCN(c3ccccn3)CC2)n1` (centres unmarked) [Compound 7, 2-[4-Biphenyl-4-yl-6-(4-pyridin-2-yl-piperazin-1-yl)[1,3,5]triazin-2-yl-amino]-3[1,1′;4′,1″]terphenyl-4-yl-propionic acid], for which the IC50 is 17.5 µM in assay [1], 12.6 µM in assay [2] and more than 100 µM in assay [3].

Regarding `O=C(O)[C@H](COCc1ccccc1)Nc1nc(-c2ccc3ccccc3c2)nc(N2CCN(c3ccccn3)CC2)n1` [Compound 1, (S)-3-Benzyloxy-2-[4-naphthalen-2-yl-6-(4-pyridin-2-yl-piperazin-1-yl)-[1,3,5]triazin-2-yl-amino]propionic acid], the IC50 was 64.8 µM in assay [1], 12.4 µM in assay [2] and more than 100 µM in assay [3].

As for `O=C(O)[C@H](C[S+]([O-])Cc1ccccc1)Nc1nc(-c2ccc(-c3ccccc3)cc2)nc(N2CCN(c3ccccn3)CC2)n1` (stereo partly drawn) [Compound 8, (R)-2-[4-Biphenyl-4-yl-6-(4-pyridin-2-yl-piperazin-1-yl)[1,3,5]triazin-2-yl-amino]-3-phenylmethanesulfinylpropionic acid], the IC50 in assay [1] is 34 µM; in assay [2] it was 14.4 µM; in assay [3], more than 100 µM.

Take `O=C(O)C(Cc1ccc(-c2ccc(C(F)(F)F)cc2)cc1)Nc1nc(-c2ccc(C(F)(F)F)cc2)nc(N2CCN(c3ccccn3)CC2)n1` (centres unmarked) [Compound 5, 2-[4-(4-Pyridin-2-yl-piperazin-1-yl)-6-(4-trifluoromethylphenyl)[1,3,5]triazin-2-yl-amino]-3-(4′-trifluoromethylbiphenyl-4-yl)propionic acid]: the 50% inhibitory concentration (IC50) in assay [1] was 18.2 µM; in assay [2], 10.2 µM; in assay [3] it was more than 100 µM.

Regarding `O=C(O)C(CSCc1ccccc1)Nc1nc(-c2ccc(-c3ccccc3)cc2)nc(N2CCN(c3ccccn3)CC2)n1` (stereo in doubt) [Compound 2, (S)-3-Benzylsulfanyl-2-[4-biphenyl-4-yl-6-(4-pyridin-2-yl-piperazin-1-yl)-[1,3,5]triazin-2-yl-amino]propionic acid], the values for the concentration for half-maximal inhibition (IC50) in assay [1], in assay [2] and in assay [3] were 36.1 µM, 6.4 µM and more than 100 µM, respectively.

As to `O=C(O)[C@H](CSCc1ccccc1)Nc1nc(Nc2ccc(C(F)(F)F)cc2)nc(-c2ccc3c(c2)OCO3)n1` [Compound 26, (R)-2-[4-Benzo[1,3]dioxol-5-yl-6-(4-trifluoromethylphenylamino)[1,3,5]triazin-2-yl-amino]-3-benzylsulfanylpropionic acid], the 50% inhibitory concentration (IC50) turned out to be 28.1 µM in assay [1], 5.8 µM in assay [2] and 52.1 µM in assay [3].

Consider `O=C(O)[C@H](C[S+]([O-])Cc1ccccc1)Nc1nc(-c2ccc(C(F)(F)F)cc2)nc(N2CCN(c3ccccn3)CC2)n1` (stereo partly drawn) [Compound 10, (R)-3-Phenylmethanesulfinyl-2-[4-(4-pyridin-2-yl-piperazin-1-yl)-6-(4-trifluoromethylphenyl)[1,3,5]triazin-2-yl-amino]propionic acid], for which the IC50 in assay [1] was more than 100 µM; in assay [2], 50.1 µM; in assay [3] it was more than 100 µM.

Turning to `O=C(O)C(Cc1ccc(Cl)cc1)Nc1nc(-c2ccc(C(F)(F)F)cc2)nc(N2CCN(c3ccccn3)CC2)n1` (centres unmarked) [Compound 4, 3-(4-Chlorophenyl)-2-[4-(4-pyridin-2-yl-piperazin-1-yl)-6-(4-trifluoromethylphenyl)[1,3,5]triazin-2-yl-amino]propionic acid], the results for the 50% inhibitory concentration (IC50) in assay [1], in assay [2] and in assay [3] were 46.4 µM, 8.5 µM and more than 100 µM, respectively.

Turning to `O=C(O)[C@H](C[S+]([O-])Cc1ccccc1)Nc1nc(-c2ccc(C(F)(F)F)cc2)nc(N2CCc3ccccc3C2)n1` (stereo partly drawn) [Compound 3, (R)-2-[4-(3,4-Dihydro-1H-isoquinolin-2-yl)-6-(4-trifluoromethylphenyl)-[1,3,5]triazin-2-yl-amino]-3-phenylmethanesulfinylpropionic acid], the concentration for half-maximal inhibition (IC50) was 12.5 µM in assay [1], 8.5 µM in assay [2] and more than 100 µM in assay [3].

On to `O=C(O)[C@H](CS(=O)(=O)Cc1ccccc1)Nc1nc(-c2ccc(F)cc2)nc(N2CCc3ccccc3C2)n1` [Compound 11, (R)-2-[4-(3,4-Dihydro-1H-isoquinolin-2-yl)-6-(4-fluorophenyl)[1,3,5]triazin-2yl-amino]-3-phenyl-methanesulfonyl propionic acid], for which the IC50 in assay [1] was more than 100 µM; in assay [2] it was 86 µM.

With `O=C(O)C(Cc1ccc(Cl)cc1)Nc1nc(-c2ccc(-c3ccccc3)cc2)nc(N2CCN(c3ccccn3)CC2)n1` (centres unmarked) [Compound 6, 2-[4-Biphenyl-4-yl-6-(4-pyridin-2-yl-piperazin-1-yl)[1,3,5]triazin-2-yl-amino]-3-(4-chlorophenyl)propionic acid], the values for the half-maximal inhibitory concentration (IC50) in assay [1], in assay [2] and in assay [3] were 28 µM, 5.3 µM and more than 100 µM, respectively.
